The structures appear in SMILES notation.

For 23 compounds, Papp and IC50 results are on record in ChEMBL document CHEMBL3112421, “Small Macrocycles As Highly Active Integrin α2β1 Antagonists” (ACS Med Chem Lett, 2014).

Series [1] in a line: Permeability across human Caco2 cells. Type of series: ADME, cell-based. To be noted: Caco-2, read-out: permeability.
The target in another series is Integrin alpha2/beta1 (Homo sapiens, UniProt P05556+P17301). In words: Antagonist activity at recombinant integrin alpha2 beta1 receptor (unknown origin) assessed as inhibition of interaction with biotinylated collagen type-1 after 3 hrs by solid phase ELISA-type assay. In kind it is protein-complex assay. In general terms: ELISA stands for enzyme-linked immunosorbent assay.
Chain of Integrin alpha2/beta1 (P05556 whole entry): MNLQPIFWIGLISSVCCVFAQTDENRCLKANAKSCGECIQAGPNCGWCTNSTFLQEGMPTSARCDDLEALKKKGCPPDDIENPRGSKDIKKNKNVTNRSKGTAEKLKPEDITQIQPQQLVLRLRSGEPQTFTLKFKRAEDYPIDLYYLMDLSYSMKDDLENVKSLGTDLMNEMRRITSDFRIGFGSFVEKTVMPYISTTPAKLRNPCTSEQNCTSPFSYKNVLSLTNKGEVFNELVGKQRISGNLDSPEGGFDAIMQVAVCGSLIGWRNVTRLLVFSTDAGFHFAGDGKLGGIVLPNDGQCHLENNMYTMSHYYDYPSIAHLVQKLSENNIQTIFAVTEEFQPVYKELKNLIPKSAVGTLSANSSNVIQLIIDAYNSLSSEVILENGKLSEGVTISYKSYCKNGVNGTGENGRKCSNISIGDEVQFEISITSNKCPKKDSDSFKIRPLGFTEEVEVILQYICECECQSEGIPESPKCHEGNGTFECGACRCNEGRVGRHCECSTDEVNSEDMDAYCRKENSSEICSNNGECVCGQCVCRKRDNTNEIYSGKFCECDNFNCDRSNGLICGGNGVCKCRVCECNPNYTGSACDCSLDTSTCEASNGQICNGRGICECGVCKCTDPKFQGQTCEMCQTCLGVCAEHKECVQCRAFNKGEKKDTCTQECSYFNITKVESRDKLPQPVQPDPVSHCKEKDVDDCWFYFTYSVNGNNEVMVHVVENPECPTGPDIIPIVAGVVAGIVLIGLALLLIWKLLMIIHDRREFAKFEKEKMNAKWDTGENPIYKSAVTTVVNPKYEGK
Chain of Integrin alpha2/beta1 (P17301 whole entry): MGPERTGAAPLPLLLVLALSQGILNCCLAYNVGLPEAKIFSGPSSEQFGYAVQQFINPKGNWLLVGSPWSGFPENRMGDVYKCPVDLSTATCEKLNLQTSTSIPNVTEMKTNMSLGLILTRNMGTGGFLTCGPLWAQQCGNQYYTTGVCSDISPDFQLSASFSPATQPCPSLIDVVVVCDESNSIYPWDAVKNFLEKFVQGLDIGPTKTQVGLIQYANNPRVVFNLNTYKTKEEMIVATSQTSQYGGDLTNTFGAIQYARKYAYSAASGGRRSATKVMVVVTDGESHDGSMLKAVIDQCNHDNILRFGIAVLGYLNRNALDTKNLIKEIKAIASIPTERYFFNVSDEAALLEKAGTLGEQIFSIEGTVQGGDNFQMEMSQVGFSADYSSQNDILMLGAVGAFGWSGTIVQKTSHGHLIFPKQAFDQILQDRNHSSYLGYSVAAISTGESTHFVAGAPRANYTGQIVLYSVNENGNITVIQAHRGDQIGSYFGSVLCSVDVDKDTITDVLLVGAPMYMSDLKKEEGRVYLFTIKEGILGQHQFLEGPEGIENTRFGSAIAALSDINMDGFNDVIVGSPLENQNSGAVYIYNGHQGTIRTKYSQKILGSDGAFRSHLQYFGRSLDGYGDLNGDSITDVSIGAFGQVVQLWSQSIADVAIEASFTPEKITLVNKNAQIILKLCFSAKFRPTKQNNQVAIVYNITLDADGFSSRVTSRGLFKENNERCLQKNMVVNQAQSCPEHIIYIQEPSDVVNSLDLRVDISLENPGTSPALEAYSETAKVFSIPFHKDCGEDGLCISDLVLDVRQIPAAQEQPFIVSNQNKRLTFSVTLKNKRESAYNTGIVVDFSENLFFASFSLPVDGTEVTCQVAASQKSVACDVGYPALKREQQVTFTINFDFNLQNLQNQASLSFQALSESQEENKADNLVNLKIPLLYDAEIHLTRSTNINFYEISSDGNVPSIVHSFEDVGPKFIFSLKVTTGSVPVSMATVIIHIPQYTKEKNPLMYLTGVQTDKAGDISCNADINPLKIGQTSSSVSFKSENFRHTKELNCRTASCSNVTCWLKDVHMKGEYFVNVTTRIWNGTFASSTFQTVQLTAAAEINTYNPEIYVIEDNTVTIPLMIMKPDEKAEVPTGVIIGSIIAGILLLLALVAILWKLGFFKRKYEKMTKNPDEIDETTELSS

In the case of `CCOC(=O)[C@@H]1Cc2cn(cn2)C/C=C/COc2ccc(Cl)c(c2)C(=O)N1`, the Papp in series [1] is above 2 ×10⁻⁶ cm/s.

In the case of `COC(=O)[C@@H]1Cc2cn(cn2)C/C=C/COc2ccc(Cl)c(c2)C(=O)N1`, the Papp in series [1] was above 2 ×10⁻⁶ cm/s.

Usually IC50 stands for the concentration needed to halve the response being measured. Turning to `O=C1N[C@H](C(=O)O)Cc2cccc(c2)OC/C=C/COc2ccc1c(Cl)c2`, at Integrin alpha2/beta1, the IC50 came to 163 nM.

For `O=C1N[C@H](C(=O)O)Cc2cccc(c2)OCCCCOc2ccc1c(Cl)c2`, the 50% inhibitory concentration (IC50) on Integrin alpha2/beta1 was 114 nM.

As to `O=C1N[C@H](C(=O)O)Cc2cccc(c2)OC/C=C/COc2ccc(Cl)c1c2`, the IC50 on Integrin alpha2/beta1 turned out to be 233 nM.

Turning to `O=C1N[C@H](C(=O)O)Cc2cccc(c2)OCCCCOc2ccc(Cl)c1c2`, the IC50 on Integrin alpha2/beta1 was 142 nM.

On to `O=C1N[C@H](C(=O)O)Cc2cccc(c2)OC/C=C/COc2cccc(Cl)c21`, for which the IC50 at Integrin alpha2/beta1 stood at 588 nM.

As for `O=C1N[C@H](C(=O)O)Cc2cccc(c2)OCCCCOc2cccc(Cl)c21`, on Integrin alpha2/beta1, the half-inhibitory concentration (IC50) was found to be 978 nM.

Turning to `O=C1N[C@H](C(=O)O)Cc2ccc(cc2)OC/C=C/COc2cccc(Cl)c21`, the 50% inhibitory concentration (IC50) on Integrin alpha2/beta1 is 178 nM.

As to `O=C1N[C@H](C(=O)O)Cc2ccc(cc2)OCCCCOc2cccc(Cl)c21`, the IC50 at Integrin alpha2/beta1 was determined as 106 nM.

In the case of `O=C1N[C@H](C(=O)O)Cc2ccc(cc2)OC/C=C/COc2ccc(Cl)c1c2`, at Integrin alpha2/beta1, the IC50 turned out to be 101 nM.

As to `O=C1N[C@H](C(=O)O)Cc2ccc(cc2)OCCCCOc2ccc(Cl)c1c2`, the IC50 at Integrin alpha2/beta1 was determined as 731 nM.

For `O=C1N[C@H](C(=O)O)Cc2cccc(c2)OCCCCOc2cccc1c2`, the IC50 on Integrin alpha2/beta1 is above 10000 nM.

Consider `Cc1ccc2cc1C(=O)N[C@H](C(=O)O)Cc1cccc(c1)OCCCCO2`, for which the IC50 at Integrin alpha2/beta1 is 745 nM.

As to `Cc1ccc2cc1C(=O)N[C@H](C(=O)O)Cc1cccc(c1)OC/C=C/CO2`, on Integrin alpha2/beta1, the IC50 was determined as 1050 nM.

For the compound `O=C1N[C@H](C(=O)O)Cc2cccc(c2)OC/C=C/COc2ccc1c(F)c2`, at Integrin alpha2/beta1, the IC50 is above 1000 nM.

`O=C1N[C@H](C(=O)O)Cc2cccc(c2)OCCCCOc2ccc1c(F)c2`: on Integrin alpha2/beta1, the IC50 is above 4000 nM.

`O=C1N[C@H](C(=O)O)Cc2cccc(c2)OC/C=C/COc2cccc(F)c21`: at Integrin alpha2/beta1, the IC50 was above 1000 nM.

As for `O=C1N[C@H](C(=O)O)Cc2cccc(c2)OCCCCOc2cccc(F)c21`, at Integrin alpha2/beta1, the IC50 is above 1000 nM.

On to `COc1cccc2c1C(=O)N[C@H](C(=O)O)Cc1cccc(c1)OCCCCO2`, for which, at Integrin alpha2/beta1, the IC50 was above 4000 nM.

With `O=C1N[C@H](C(=O)O)Cc2cccc(c2)OC/C=C/COc2ccc([N+](=O)[O-])c1c2`, at Integrin alpha2/beta1, the IC50 was determined as 667 nM.

In the case of `O=C1N[C@H](C(=O)O)Cc2cccc(c2)OC/C=C/COc2cc(C(F)(F)F)c1cn2`, the IC50 at Integrin alpha2/beta1 is 1900 nM.

As for `O=C1N[C@H](C(=O)O)Cc2cccc(n2)NC/C=C/COc2ccc(Cl)c1c2`, on Integrin alpha2/beta1, the IC50 is above 1000 nM.
